Read-outs that look alike come from different tables or passages of the source.
Columns and labels:
PDK2/PDHK2 = target: T1, PDK2/PDHK2 (Homo sapiens, UniProt Q15119); experiment: HotSpot in vitro kinase radiometric assay; format: biochemical; settings: PDK2/PDHK2; ATP 15 uM; read-out: IC50 (M) Control Cmpd
T1 construct: purchased Reaction Biology (HotSpot contract assay)
Procedure: (§1) Accordingly, we selected five additional representative HSP90 inhibitors, at least one from each chemical class, including both synthetic inhibitors and natural products. […]
(§2) This radioisotope binding assay was designed to directly detect the true product without the use of modified substrates, coupling enzymes, or detection antibodies thus enabling to directly measure inhibition of catalytic activity. Test or control compounds were incubated with kinase, substrate, cofactors, and radioisotope-labeled ATP (32P-ɣ-ATP or 33P-ɣ-ATP). The reaction mixtures were then spotted onto filter papers, which bind the radioisotope-labeled catalytic product.

PDK4/PDKH4 = target: T2, PDK4/PDKH4 (Homo sapiens, UniProt Q16654); experiment: HotSpot in vitro kinase radiometric assay; format: biochemical; settings: PDK4/PDKH4; ATP 30 uM; read-out: IC50 (M) Control Cmpd
T2 construct: purchased Reaction Biology (HotSpot contract assay)
Procedure: as §1, §2

382 unique human kinases [1] = experiment: biochemical; format: biochemical; settings: read-out: Control Compound IC50*
382 unique human kinases [2] = target: T3, 382 unique human kinases (Homo sapiens, UniProt Q15119); experiment: biochemical; format: biochemical; settings: PDK2/PDHK2; [ATP] 15 µM; read-out: Control Compound IC50*
T3 construct: purchased Reaction Biology (HotSpot contract assay)

382 unique human kinases [3] = target: T4, 382 unique human kinases (Homo sapiens, UniProt Q9Y572); experiment: biochemical; format: biochemical; settings: RIPK3; [ATP] 2.5 µM; read-out: Control Compound IC50*
T4 construct: purchased Reaction Biology (HotSpot contract assay)

382 unique human kinases [4] = target: T5, 382 unique human kinases (Homo sapiens, UniProt P68400); experiment: biochemical; format: biochemical; settings: CK2a; read-out: Control Compound IC50*
T5 construct: purchased Reaction Biology (HotSpot contract assay)

382 unique human kinases [5] = target: T6, 382 unique human kinases (Homo sapiens, UniProt Q16654); experiment: biochemical; format: biochemical; settings: PDK4/PDKH4; [ATP] 30 µM; read-out: Control Compound IC50*
T6 construct: purchased Reaction Biology (HotSpot contract assay)

382 unique human kinases [6] = target: T7, 382 unique human kinases (Homo sapiens, UniProt P10398); experiment: biochemical; format: biochemical; settings: ARAF; read-out: Control Compound IC50*
T7 construct: purchased Reaction Biology (HotSpot contract assay)
T7 sequence (P10398 1-606): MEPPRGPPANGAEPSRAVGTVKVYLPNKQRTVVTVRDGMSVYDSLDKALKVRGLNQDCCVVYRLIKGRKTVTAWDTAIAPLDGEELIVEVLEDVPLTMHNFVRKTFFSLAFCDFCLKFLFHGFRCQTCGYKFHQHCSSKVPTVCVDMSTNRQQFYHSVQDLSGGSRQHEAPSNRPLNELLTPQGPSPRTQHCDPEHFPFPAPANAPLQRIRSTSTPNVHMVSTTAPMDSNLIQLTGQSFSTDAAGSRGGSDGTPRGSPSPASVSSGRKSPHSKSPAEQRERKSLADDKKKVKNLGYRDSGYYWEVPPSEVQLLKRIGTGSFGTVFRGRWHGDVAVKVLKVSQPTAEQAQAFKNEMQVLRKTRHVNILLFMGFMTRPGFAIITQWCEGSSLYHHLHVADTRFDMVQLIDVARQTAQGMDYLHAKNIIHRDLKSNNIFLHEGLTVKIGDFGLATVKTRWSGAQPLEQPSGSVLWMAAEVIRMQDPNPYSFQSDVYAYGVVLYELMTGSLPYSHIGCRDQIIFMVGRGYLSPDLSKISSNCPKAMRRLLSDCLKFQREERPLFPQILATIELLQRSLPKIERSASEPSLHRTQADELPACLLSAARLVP

382 unique human kinases [7] = target: T8, 382 unique human kinases (Homo sapiens, UniProt Q15120); experiment: biochemical; format: biochemical; settings: PDK3/PDHK3; [ATP] 30 µM; read-out: Control Compound IC50*
T8 construct: purchased Reaction Biology (HotSpot contract assay)

382 unique human kinases [8] = target: T9, 382 unique human kinases (Homo sapiens, UniProt Q9NYL2); experiment: biochemical; format: biochemical; settings: ZAK/MLTK; [ATP] 50 µM; read-out: Control Compound IC50*
T9 construct: purchased Reaction Biology (HotSpot contract assay)

382 unique human kinases [9] = target: T10, 382 unique human kinases (Homo sapiens, UniProt Q9NR20); experiment: biochemical; format: biochemical; settings: DYRK4; read-out: Control Compound IC50*
T10 construct: purchased Reaction Biology (HotSpot contract assay)
T10 sequence (Q9NR20 1-520): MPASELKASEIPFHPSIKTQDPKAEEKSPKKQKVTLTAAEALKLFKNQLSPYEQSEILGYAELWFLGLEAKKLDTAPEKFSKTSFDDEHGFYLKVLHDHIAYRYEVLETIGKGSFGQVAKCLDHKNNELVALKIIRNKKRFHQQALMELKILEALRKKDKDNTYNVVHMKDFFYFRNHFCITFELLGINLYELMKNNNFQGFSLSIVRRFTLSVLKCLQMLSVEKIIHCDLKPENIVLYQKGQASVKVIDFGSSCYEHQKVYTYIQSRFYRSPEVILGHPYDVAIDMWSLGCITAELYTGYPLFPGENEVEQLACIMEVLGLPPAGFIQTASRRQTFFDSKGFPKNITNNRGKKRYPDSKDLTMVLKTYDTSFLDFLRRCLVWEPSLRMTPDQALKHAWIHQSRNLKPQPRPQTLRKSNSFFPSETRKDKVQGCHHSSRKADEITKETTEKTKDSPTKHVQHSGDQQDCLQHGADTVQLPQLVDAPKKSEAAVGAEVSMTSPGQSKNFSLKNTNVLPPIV

382 unique human kinases [10] = target: T11, 382 unique human kinases (Homo sapiens, UniProt Q15118); experiment: biochemical; format: biochemical; settings: PDK1/PDHK1; [ATP] 50 µM; read-out: Control Compound IC50*
T11 construct: purchased Reaction Biology (HotSpot contract assay)

16-kinase panel = 16-kinase panel screening, in vitro radiometric assay; format: biochemical, human; settings: 10 μM
ABL1 = ABL1 (Homo sapiens, UniProt P00519); experiment: HotSpot in vitro kinase radiometric assay; format: biochemical; design: purchased Reaction Biology (HotSpot contract assay); settings: ABL1; 10uM; ATP 40 uM; Data 1, Data 2; read-out: % Enzyme Activity (relative to DMSO controls)
DDR1 = DDR1 (Homo sapiens, UniProt Q08345); experiment: HotSpot in vitro kinase radiometric assay; format: biochemical; design: purchased Reaction Biology (HotSpot contract assay); settings: DDR1; 10uM; ATP 100 uM; Data 1, Data 2; read-out: % Enzyme Activity (relative to DMSO controls)
[11] = target: bacterial sensor kinase PhoQ; design: method as in Guarnieri et al., 2008; settings: ref Guarnieri et al., 2008; cited from earlier work
[12] = target: human pyruvate dehydrogenase kinases; design: method as in Kato et al., 2007; settings: ref Kato et al., 2007; cited from earlier work
LYN B = target: T12, LYN B (Homo sapiens, UniProt P07948); experiment: HotSpot in vitro kinase radiometric assay; format: biochemical; settings: LYN B; 10uM; ATP 20 uM; Data 1, Data 2; read-out: % Enzyme Activity (relative to DMSO controls)
T12 construct: purchased Reaction Biology (HotSpot contract assay)
Procedure: as §1, §2

BLK = target: T13, BLK (Homo sapiens, UniProt P51451); experiment: HotSpot in vitro kinase radiometric assay; format: biochemical; settings: BLK; 10uM; ATP 10 uM; Data 1, Data 2; read-out: % Enzyme Activity (relative to DMSO controls)
T13 construct: purchased Reaction Biology (HotSpot contract assay)
Procedure: as §1, §2

c-Src = target: T14, c-Src (Homo sapiens, UniProt P12931); experiment: HotSpot in vitro kinase radiometric assay; format: biochemical; settings: c-Src; 10uM; ATP 15 uM; Data 1, Data 2; read-out: % Enzyme Activity (relative to DMSO controls)
T14 construct: purchased Reaction Biology (HotSpot contract assay)
Procedure: as §1, §2

TRKC = target: T15, TRKC (Homo sapiens, UniProt Q16288); experiment: HotSpot in vitro kinase radiometric assay; format: biochemical; settings: TRKC; 10uM; ATP 100 uM; Data 1, Data 2; read-out: % Enzyme Activity (relative to DMSO controls)
T15 construct: purchased Reaction Biology (HotSpot contract assay)

PASK = target: T16, PASK (Homo sapiens, UniProt Q96RG2); experiment: HotSpot in vitro kinase radiometric assay; format: biochemical; settings: PASK; 10uM; ATP 50 uM; Data 1, Data 2; read-out: % Enzyme Activity (relative to DMSO controls)
T16 construct: purchased Reaction Biology (HotSpot contract assay)
Description: (§3) Accordingly, we selected five additional representative HSP90 inhibitors, at least one from each chemical class, including both synthetic inhibitors and natural products.
(§4) Accordingly, we screened the hit compound and the two leads for kinase off-target inhibition using the 16-kinase panel and the same in vitro catalytic assay used previously.
as §2

TRKA = target: T17, TRKA (Homo sapiens, UniProt P04629); experiment: HotSpot in vitro kinase radiometric assay; format: biochemical; settings: TRKA; 10uM; ATP 100 uM; Data 1, Data 2; read-out: % Enzyme Activity (relative to DMSO controls)
T17 construct: purchased Reaction Biology (HotSpot contract assay)
Description: as §3, §4, §2

PEAK1 = target: T18, PEAK1 (Homo sapiens, UniProt Q9H792); experiment: HotSpot in vitro kinase radiometric assay; format: biochemical; settings: PEAK1; 10uM; ATP 30 uM; Data 1, Data 2; read-out: % Enzyme Activity (relative to DMSO controls)
T18 construct: purchased Reaction Biology (HotSpot contract assay)

[13] = target: human 3-methyl-2-oxobutanoate dehydrogenase kinase (BCKDHK); design: method as in Besant et al., 2002; settings: ref Besant et al., 2002; cited from earlier work
LCK = target: T19, LCK (Homo sapiens, UniProt P06239); experiment: HotSpot in vitro kinase radiometric assay; format: biochemical; settings: LCK; 10uM; ATP 15 uM; Data 1, Data 2; read-out: % Enzyme Activity (relative to DMSO controls)
T19 construct: purchased Reaction Biology (HotSpot contract assay)

FYN = target: T20, FYN (Homo sapiens, UniProt P06241); experiment: HotSpot in vitro kinase radiometric assay; format: biochemical; settings: FYN; 10uM; ATP 30 uM; Data 1, Data 2; read-out: % Enzyme Activity (relative to DMSO controls)
T20 construct: purchased Reaction Biology (HotSpot contract assay)

ABL2/ARG = target: T21, ABL2/ARG (Homo sapiens, UniProt P42684); experiment: HotSpot in vitro kinase radiometric assay; format: biochemical; settings: ABL2/ARG; 10uM; ATP 30 uM; Data 1, Data 2; read-out: % Enzyme Activity (relative to DMSO controls)
T21 construct: purchased Reaction Biology (HotSpot contract assay)

FGR = target: T22, FGR (Homo sapiens, UniProt P09769); experiment: HotSpot in vitro kinase radiometric assay; format: biochemical; settings: FGR; 10uM; ATP 50 uM; Data 1, Data 2; read-out: % Enzyme Activity (relative to DMSO controls)
T22 construct: purchased Reaction Biology (HotSpot contract assay)

YES/YES1 = target: T23, YES/YES1 (Homo sapiens, UniProt P07947); experiment: HotSpot in vitro kinase radiometric assay; format: biochemical; settings: YES/YES1; 10uM; ATP 50 uM; Data 1, Data 2; read-out: % Enzyme Activity (relative to DMSO controls)
T23 construct: purchased Reaction Biology (HotSpot contract assay)
T23 sequence (P07947 whole entry): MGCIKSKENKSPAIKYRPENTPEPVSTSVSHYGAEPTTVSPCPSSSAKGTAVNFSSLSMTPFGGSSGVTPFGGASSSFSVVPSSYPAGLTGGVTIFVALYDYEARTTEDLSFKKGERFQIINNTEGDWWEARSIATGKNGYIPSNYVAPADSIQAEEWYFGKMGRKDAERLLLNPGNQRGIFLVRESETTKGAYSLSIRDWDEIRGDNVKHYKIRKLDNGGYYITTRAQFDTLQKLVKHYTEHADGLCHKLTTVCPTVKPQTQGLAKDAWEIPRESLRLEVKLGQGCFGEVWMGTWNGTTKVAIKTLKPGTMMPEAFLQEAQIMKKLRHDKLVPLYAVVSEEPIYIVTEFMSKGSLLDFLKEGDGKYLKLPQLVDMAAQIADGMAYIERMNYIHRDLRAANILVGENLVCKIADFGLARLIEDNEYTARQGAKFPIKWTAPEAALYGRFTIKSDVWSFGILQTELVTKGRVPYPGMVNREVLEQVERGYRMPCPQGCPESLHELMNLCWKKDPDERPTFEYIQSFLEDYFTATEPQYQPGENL

T16 sequence (Q96RG2 whole entry): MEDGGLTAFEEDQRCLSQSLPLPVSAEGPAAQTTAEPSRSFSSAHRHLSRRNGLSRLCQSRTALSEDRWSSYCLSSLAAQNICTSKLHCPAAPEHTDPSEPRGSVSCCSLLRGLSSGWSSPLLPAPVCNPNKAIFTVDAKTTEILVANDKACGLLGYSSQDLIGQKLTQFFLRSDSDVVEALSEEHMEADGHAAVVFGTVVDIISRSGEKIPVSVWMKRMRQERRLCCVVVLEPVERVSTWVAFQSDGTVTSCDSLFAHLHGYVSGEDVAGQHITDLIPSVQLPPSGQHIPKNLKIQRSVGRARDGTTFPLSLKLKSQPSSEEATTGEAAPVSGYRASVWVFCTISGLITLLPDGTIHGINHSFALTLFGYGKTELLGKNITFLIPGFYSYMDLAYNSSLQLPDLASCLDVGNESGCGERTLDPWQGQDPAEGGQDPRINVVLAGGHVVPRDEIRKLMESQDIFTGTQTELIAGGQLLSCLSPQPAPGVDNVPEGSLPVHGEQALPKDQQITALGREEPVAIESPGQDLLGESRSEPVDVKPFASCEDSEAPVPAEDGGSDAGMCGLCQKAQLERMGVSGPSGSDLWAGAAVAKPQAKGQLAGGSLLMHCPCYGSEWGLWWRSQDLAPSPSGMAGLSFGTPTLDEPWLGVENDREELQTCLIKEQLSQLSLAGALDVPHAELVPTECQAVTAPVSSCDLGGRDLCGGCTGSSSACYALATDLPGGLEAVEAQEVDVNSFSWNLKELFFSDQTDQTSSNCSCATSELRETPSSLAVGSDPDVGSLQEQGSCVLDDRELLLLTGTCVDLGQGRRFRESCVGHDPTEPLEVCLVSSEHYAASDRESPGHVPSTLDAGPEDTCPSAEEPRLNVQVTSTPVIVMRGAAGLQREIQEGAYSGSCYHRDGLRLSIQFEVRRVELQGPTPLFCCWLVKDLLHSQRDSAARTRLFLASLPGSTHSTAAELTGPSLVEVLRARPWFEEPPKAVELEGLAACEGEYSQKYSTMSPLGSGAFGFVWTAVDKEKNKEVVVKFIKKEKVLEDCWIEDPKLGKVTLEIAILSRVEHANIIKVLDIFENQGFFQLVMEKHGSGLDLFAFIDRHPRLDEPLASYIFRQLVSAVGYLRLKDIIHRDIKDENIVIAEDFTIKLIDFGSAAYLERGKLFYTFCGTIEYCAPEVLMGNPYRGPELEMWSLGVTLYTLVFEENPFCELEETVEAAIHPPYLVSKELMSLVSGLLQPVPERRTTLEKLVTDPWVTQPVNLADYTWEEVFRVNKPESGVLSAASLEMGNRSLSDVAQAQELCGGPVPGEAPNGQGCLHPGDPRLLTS
T14 sequence (P12931 whole entry): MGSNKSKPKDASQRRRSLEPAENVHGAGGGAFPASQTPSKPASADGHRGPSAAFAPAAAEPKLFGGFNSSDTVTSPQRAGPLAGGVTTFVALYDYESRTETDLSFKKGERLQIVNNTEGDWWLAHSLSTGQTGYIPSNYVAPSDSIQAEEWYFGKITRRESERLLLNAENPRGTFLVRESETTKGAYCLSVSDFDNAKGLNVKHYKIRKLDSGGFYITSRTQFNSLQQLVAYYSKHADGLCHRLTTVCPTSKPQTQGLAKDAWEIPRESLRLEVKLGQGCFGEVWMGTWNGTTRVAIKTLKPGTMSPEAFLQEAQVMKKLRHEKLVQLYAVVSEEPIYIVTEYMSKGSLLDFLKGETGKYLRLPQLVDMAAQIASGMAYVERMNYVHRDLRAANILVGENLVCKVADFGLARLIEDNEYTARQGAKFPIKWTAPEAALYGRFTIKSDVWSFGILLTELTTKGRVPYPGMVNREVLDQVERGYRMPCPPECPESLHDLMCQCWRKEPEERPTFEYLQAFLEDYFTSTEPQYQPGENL
T20 sequence (P06241 whole entry): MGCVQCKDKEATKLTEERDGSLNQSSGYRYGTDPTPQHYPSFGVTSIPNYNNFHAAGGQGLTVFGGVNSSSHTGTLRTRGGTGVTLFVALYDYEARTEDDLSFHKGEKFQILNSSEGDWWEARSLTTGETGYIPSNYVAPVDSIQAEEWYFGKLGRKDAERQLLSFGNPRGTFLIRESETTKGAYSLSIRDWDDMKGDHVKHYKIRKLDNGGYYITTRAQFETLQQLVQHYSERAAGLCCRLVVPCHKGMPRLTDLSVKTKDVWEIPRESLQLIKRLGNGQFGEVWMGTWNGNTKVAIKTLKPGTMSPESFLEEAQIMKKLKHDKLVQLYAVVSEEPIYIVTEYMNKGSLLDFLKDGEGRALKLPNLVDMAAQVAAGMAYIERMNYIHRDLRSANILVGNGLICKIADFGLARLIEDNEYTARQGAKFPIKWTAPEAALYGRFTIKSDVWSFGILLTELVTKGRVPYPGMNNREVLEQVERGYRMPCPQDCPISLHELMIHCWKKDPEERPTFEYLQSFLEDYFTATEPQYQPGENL
T9 sequence (Q9NYL2 whole entry): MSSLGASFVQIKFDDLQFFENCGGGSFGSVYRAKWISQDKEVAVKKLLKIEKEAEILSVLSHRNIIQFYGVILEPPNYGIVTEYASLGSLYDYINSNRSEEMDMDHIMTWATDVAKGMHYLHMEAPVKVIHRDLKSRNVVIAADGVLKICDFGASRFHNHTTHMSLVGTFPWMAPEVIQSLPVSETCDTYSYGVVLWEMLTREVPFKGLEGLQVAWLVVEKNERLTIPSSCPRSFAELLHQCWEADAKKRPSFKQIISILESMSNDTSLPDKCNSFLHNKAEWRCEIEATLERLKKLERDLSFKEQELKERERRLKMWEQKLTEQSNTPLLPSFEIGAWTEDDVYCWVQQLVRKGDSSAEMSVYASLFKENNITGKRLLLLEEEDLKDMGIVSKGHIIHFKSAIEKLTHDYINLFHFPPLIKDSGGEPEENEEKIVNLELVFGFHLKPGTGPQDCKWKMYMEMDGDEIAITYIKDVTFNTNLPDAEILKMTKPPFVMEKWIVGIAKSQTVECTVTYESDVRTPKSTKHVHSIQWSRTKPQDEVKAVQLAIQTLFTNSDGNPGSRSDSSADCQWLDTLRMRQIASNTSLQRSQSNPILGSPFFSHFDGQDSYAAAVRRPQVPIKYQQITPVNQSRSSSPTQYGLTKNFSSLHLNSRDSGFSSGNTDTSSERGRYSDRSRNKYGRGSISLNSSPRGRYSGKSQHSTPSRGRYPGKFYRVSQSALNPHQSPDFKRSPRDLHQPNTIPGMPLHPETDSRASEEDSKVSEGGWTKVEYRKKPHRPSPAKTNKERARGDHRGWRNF
T8 sequence (Q15120 whole entry): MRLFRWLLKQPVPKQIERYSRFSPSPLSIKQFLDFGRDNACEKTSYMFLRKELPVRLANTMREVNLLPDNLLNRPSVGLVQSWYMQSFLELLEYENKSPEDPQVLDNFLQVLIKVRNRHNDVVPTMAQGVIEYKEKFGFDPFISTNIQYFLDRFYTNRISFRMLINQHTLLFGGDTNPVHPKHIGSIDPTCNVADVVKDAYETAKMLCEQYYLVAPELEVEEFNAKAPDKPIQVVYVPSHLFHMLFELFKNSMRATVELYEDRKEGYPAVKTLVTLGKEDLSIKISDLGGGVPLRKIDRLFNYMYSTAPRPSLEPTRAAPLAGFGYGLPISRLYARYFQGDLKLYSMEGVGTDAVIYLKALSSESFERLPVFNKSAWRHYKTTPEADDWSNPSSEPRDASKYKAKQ
T19 sequence (P06239 whole entry): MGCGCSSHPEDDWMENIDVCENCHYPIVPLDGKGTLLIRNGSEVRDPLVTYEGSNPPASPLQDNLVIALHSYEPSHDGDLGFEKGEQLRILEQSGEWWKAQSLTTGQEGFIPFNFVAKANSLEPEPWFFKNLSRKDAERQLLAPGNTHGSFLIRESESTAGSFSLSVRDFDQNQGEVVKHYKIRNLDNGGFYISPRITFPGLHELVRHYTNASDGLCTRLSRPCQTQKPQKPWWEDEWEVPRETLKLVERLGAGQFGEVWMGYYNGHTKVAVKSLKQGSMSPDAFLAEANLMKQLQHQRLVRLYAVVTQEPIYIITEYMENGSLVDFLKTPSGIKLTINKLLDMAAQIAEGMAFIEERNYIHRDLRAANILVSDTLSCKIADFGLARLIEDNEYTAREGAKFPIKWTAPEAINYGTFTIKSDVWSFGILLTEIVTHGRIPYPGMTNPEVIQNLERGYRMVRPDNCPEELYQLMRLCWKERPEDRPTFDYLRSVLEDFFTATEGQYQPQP
T5 sequence (P68400 whole entry): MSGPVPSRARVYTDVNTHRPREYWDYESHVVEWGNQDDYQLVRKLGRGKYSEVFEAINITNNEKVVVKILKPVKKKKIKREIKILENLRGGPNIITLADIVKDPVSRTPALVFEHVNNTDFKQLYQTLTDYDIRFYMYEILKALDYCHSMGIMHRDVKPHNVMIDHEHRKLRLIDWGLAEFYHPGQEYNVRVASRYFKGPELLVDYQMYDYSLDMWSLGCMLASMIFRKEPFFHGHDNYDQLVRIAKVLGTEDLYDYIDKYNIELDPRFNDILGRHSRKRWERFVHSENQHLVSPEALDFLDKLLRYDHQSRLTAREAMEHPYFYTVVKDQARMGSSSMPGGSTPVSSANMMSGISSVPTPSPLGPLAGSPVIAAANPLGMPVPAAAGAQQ

## O=C1Nc2ccc(I)cc2/C1=C/c1cc(Br)c(O)c(Br)c1 [GW5074]
PDK2/PDHK2
  IC50: 6.39e-06 M
PDK4/PDKH4
  IC50: 2.51e-06 M
382 unique human kinases [1]; BRAF (R506_K507insVLR)
  IC50: […]
382 unique human kinases [1]; BRAF (T599_V600insT)
  IC50: […]
382 unique human kinases [1]; BRAF (d485-489/P490Y)
  IC50: […]
382 unique human kinases [1]; BRAF-FAM131B (Fex2Bex9)
  IC50: […]
382 unique human kinases [1]; BRAF-KIAA1549 (Kex15Bex9)
  IC50: […]
382 unique human kinases [1]; BRAF-KIAA1549 (Kex16Bex9)
  IC50: […]
382 unique human kinases [1]; BRAF-SRGAP3 (Sex12Bex9)
  IC50: […]
382 unique human kinases [2]
  IC50: 6610 nM
382 unique human kinases [3]
  IC50: 1060 nM
382 unique human kinases [4]
  IC50: 398 nM
382 unique human kinases [5]
  IC50: 1720 nM
382 unique human kinases [6]
  IC50: 14 nM
382 unique human kinases [7]
  IC50: 12100 nM
382 unique human kinases [8]
  IC50: 2620 nM
382 unique human kinases [9]
  IC50: 1880 nM
382 unique human kinases [10]
  IC50: 32200 nM

## C[C@@H]1C[C@H]2O[C@@H]2/C=C\C=C\C(=O)Cc2c(Cl)c(O)cc(O)c2C(=O)O1 [Radicicol]
16-kinase panel
  activity against the 16-kinase panel: inactive
ABL1
  remaining activity at 10 µM: 106%
DDR1
  remaining activity at 10 µM: 105%
[11]
  Kd: 715000 nM
[12]
  IC50: 230000 to 400000 nM
LYN B
  remaining activity at 10 µM: 114%
BLK
  remaining activity at 10 µM: 104%
c-Src
  remaining activity at 10 µM: 96.8%
TRKC
  remaining activity at 10 µM: 98.6%
PASK
  remaining activity at 10 µM: 94.4%
TRKA
  remaining activity at 10 µM: 106%
PEAK1
  remaining activity at 10 µM: 104%
[13]
  IC50: 635 nM
LCK
  remaining activity at 10 µM: 119%
FYN
  remaining activity at 10 µM: 110%
ABL2/ARG
  remaining activity at 10 µM: 117%
FGR
  remaining activity at 10 µM: 112%
YES/YES1
  remaining activity at 10 µM: 103%
